Consider 16 molecules from ChEMBL document CHEMBL5226296, “Reversible Lysine Specific Demethylase 1 (LSD1) Inhibitors: A Promising Wrench to Impair LSD1” (J Med Chem, 2021).

The target of data set [1] is T1, Amine oxidase [flavin-containing] A (Homo sapiens, UniProt P21397).
T1 sequence (P21397 whole entry): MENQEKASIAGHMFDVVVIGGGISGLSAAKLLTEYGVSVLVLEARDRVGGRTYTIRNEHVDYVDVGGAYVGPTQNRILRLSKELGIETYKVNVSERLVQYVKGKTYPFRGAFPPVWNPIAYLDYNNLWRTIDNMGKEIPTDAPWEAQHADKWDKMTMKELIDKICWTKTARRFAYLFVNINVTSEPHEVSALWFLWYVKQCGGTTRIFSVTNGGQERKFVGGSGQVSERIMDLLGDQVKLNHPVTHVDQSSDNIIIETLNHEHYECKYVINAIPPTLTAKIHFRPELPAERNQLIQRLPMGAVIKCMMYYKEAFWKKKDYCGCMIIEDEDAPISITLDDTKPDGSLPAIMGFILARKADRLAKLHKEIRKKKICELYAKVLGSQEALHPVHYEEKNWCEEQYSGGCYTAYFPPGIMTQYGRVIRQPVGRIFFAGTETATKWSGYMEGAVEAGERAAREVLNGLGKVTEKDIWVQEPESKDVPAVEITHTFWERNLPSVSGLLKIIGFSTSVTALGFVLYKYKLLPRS
In words: Inhibition of recombinant MAO-A (unknown origin) by Spectrometric analysis.

In data set [2] the target is T2, Amine oxidase [flavin-containing] B (Homo sapiens, UniProt P27338).
T2 sequence (P27338 whole entry): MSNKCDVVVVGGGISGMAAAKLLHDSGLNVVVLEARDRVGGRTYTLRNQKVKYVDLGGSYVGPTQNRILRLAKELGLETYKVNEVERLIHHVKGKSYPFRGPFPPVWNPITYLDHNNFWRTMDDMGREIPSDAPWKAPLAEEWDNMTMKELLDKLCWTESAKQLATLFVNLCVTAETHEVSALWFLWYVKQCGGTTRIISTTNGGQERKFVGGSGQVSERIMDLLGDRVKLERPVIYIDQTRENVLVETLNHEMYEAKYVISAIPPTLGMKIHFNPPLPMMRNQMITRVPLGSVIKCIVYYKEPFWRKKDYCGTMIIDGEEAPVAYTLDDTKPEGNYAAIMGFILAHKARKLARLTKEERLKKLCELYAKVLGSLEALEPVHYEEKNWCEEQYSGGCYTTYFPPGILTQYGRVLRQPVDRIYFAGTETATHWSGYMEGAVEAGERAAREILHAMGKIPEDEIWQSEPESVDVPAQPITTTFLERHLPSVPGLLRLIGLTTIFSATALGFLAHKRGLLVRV
In words: Inhibition of recombinant MAO-B (unknown origin) by Spectrometric analysis.

For data set [3], the target named is T3, Lysine-specific histone demethylase 1A (Homo sapiens, UniProt O60341). In words: Inhibition of LSD1 (unknown origin) using H3K4me2 peptide as substrate at 1 uM incubated for 30 mins by Amplex Red reagent based fluorescence analysis.
In data set [4] the target is T4, MAO-A (Homo sapiens, UniProt P21397).
T4 sequence (P21397 whole entry): T1 sequence (P21397 whole entry)
In words: Inhibition of recombinant MAO-A (unknown origin) at 1 uM incubated for 15 mins followed by luciferin substrate addition and measured after 60 mins by Promega-Glo analysis. The conditions noted are these: probe luciferin substrate, time 75 min.

In data set [5] the target is T5, MAO-B (Homo sapiens, UniProt P27338).
T5 sequence (P27338 whole entry): T2 sequence (P27338 whole entry)
In words: Inhibition of recombinant MAO-B (unknown origin) at 1 uM incubated for 15 mins followed by luciferin substrate addition and measured after 60 mins by Promega-Glo analysis. The conditions noted are these: probe luciferin substrate, time 75 min.

The subject of the next data set is Raji. The experiment in a line: Antiproliferative activity against human Raji cells assessed as reduction in cell viability incubated for 6 days by MTS assay. It is filed as functional, cell-based. The conditions noted are these: 144 h.
A further data set relates to OCI-AML-3. The experiment in a line: Antiproliferative activity against human OCI-AML-3 cells assessed as reduction in cell viability incubated for 6 days by MTS assay. It is filed as functional, cell-based. The conditions noted are these: OCI-AML-3, 144 h.
A further data set has as its system K562. In words: Antiproliferative activity against human K562 cells assessed as reduction in cell viability incubated for 6 days by MTS assay. It is filed as functional, cell-based. The conditions noted are these: K562, 144 h.
The next data set concerns THP-1. In words: Antiproliferative activity against human THP-1 cells assessed as reduction in cell viability incubated for 6 days by MTS assay. It is filed as functional, cell-based. The conditions noted are these: THP-1, 144 h.
The next data set relates to U-937. The experiment in a line: Antiproliferative activity against human U-937 cells assessed as reduction in cell viability incubated for 6 days by MTS assay. As to conditions: U-937, 144 h. The class given is functional, cell-based.
Data set [6] addresses T3, Lysine-specific histone demethylase 1A. The experiment in a line: Inhibition of LSD1 (unknown origin) using methylated histone H3K4 peptide as substrate by fluorescence analysis.
For data set [7] the target is unchanged. The experiment in a line: Inhibition of LSD1 (unknown origin) expressed in Escherichia coli BL21 (DE) using H3K4me2 peptide as substrate incubated for 30 mins by Amplex Red reagent based fluorescence analysis.
Data set [8] addresses T4, MAO-A. In words: Inhibition of recombinant MAO-A (unknown origin) at 1 uM by MAO-GloTM assay.
Data set [9] has as its target T5, MAO-B. The experiment in a line: Inhibition of recombinant MAO-B (unknown origin) at 1 uM by MAO-GloTM assay.
Another data set has as its system MDA-MB-231. The experiment in a line: Antiproliferative activity against human MDA-MB-231 cells assessed as reduction in cell viability incubated for 48 hrs by MTT assay. It is filed as functional, cell-based. The conditions noted are these: MDA-MB-231, 48 h.
For data set [10], the target named is T3, Lysine-specific histone demethylase 1A. In words: Inhibition of LSD1 (unknown origin) by fluorescence analysis.
Data set [11] has the same target. The experiment in a line: Inhibition of human GST-tagged LSD1 demethylase activity using H3K4 peptide as substrate by MALDI-TOF analysis.
Data set [12] shares this target. In words: Inhibition of human LSD1 (172 to 833 residues) expressed in Escherichia coli Rosetta 2 strain using H3K4me1 (1 to 21 residues) as substrate by Amplex Red reagent based fluorescence assay.
The target is the same in data set [13]. In words: Inhibition of LSD1 (unknown origin).
Data set [14] has the same target. The experiment in a line: Inhibition of LSD1 (unknown origin) by fluorescence based microplate reader analysis.
Data set [15] deals with T1, Amine oxidase [flavin-containing] A. The experiment in a line: Inhibition of recombinant MAO-A (unknown origin) by MAO-Glo assay.
For data set [16], the target named is T2, Amine oxidase [flavin-containing] B. The experiment in a line: Inhibition of recombinant MAO-B (unknown origin) by MAO-Glo assay.
Data set [17] addresses T3, Lysine-specific histone demethylase 1A. The experiment in a line: Inhibition of recombinant LSD1 (unknown origin).
For the next data set, the system named is MGC-803. In words: Antiproliferative activity against human MGC-803 cells assessed as reduction in cell viability incubated for 72 hrs by MTT assay. It is filed as functional, cell-based.
Data set [18] in a line: Cytotoxicity against human GES1 cells assessed as reduction in cell viability incubated for 72 hrs by MTT assay. The class given is toxicity, cell-based.

Take `Cc1ccc(S(=O)(=O)Nc2cccc(C(=O)NCCc3ccc(O)cc3)c2)cc1`: the figures for the IC50 in data set [1] and in data set [2] were 109 µM and 344 µM, respectively.

Molecule `C#CCSc1nc(Sc2nnnn2-c2ccccc2)c2nnn(Cc3ccccc3Cl)c2n1` came in with an inhibition in data set [3] of 95.6%. In addition, the inhibition at 1.25 h, 1 µM at MAO-A [4] and at MAO-B [5] was less than 10% each time. The IC50 in the data set on Raji worked out at 1400 nM; in the data set on OCI-AML-3, 1790 nM; in the data set with K562, 1300 nM; with THP-1, 450 nM; with U-937 it was 1220 nM.

Molecule `CSCCc1nc(-c2cccc(N)c2)oc1C` showed an IC50 in [6] of 16.1 µM.

In turn, `COc1cc2c(cc1OC)-c1cc3ccc4c(c3c[n+]1CC2)OCO4` yielded an IC50 in data set [7] of 140 nM. Moreover, the inhibition at 1 µM at MAO-A [8] and on MAO-B [9] was less than 30% in each case.

Consider `Cc1ccc(S(=O)(=O)Nc2cccc(C(=O)NCCc3ccc([N+](=O)[O-])cc3)c2)cc1`, for which the concentration for half-maximal inhibition (IC50) in data set [1] is 90 µM; in [2] it was 226 µM.

For `COc1c(O)cc2oc3cc(O)c(CC=C(C)C)c(O)c3c(=O)c2c1CC=C(C)C` [MANGOSTIN], the IC50 in the data set with MDA-MB-231 is 12.8 µM; in [10] it was 2810 nM.

Molecule `COC(=O)c1cc(CN2CCN(C(=N)N)CC2)cc(C(=O)N2CCN(C(=O)c3ccc(C(=N)N)cc3)CC2)c1` registered a concentration for half-maximal inhibition (IC50) in [11] of 5.27 µM.

Take `CSCC[C@@H]1NC(=O)[C@@H](NC(=O)[C@H](CCCNC(=N)N)NC(=O)[C@H](C)N)CCCCNC(=O)CC[C@@H](C(=O)N[C@@H](CCC(=O)O)C(=O)N[C@@H](C)C(=O)N[C@@H](CCCNC(=N)N)C(=O)N[C@@H](CCCCN)C(=O)N[C@@H](CO)C(=O)N[C@H](C(=O)O)[C@@H](C)O)NC1=O`: in data set [12], affinity was put at a Ki of 2300 nM.

`COc1cc(CNC(=O)CCCC/C=C/C(C)C)ccc1O` [CAPSAICIN] registered an IC50 in data set [13] of 600 nM.

Consider `O=C(NCCc1ccc([N+](=O)[O-])cc1)c1cccc(NS(=O)(=O)c2ccccc2)c1`, for which the IC50 in data set [1] is 63.9 µM; in [2] it was 298 µM.

With `COCc1cccc(NC(=O)c2cc3ccccc3n2C)c1COc1ccc(OC2CCNCC2)cc1`, the half-inhibitory concentration (IC50) amounted to 71 µM in [1] and 138 µM in data set [2].

For `COc1c(O[C@H]2O[C@@H](C(=O)O)[C@H](O)[C@@H](O)[C@@H]2O)cc(O)c2c(=O)cc(-c3ccccc3)oc12`, the IC50 in data set [14] stood at 2980 nM; with MDA-MB-231, 19.4 µM.

In [11], `N=C(N)c1ccc(C(=O)N2CCN(C(=O)c3cc(CN4CCN(C(=N)N)CC4)cc([N+](=O)[O-])c3)CC2)cc1` had an IC50 of 10.5 µM.

As to `CC(C)(C)OC(=O)N1CCN(C(=S)SCC(=O)Nc2ccc(C(=O)/C=C/c3ccccc3F)cc2)CC1`, the IC50 in data set [15] and in data set [16] was greater than 20 µM in each case.

With `C=CC(=O)Nc1cc(Nc2nccc(-c3cn(C)c4ccccc34)n2)c(OC)cc1N(C)CCN(C)C` [OSIMERTINIB], the IC50 in [17] was determined as 3.98 µM.

For `COc1ccc(-c2coc3cc(O)cc(O)c3c2=O)cc1` [BIOCHANIN], the IC50 in the data set with MGC-803 is 2950 nM. The IC50 at 72 h in data set [18] is greater than 32 µM.
